Measured values as given in patent US7709488B2, “Imidazopyridine-derivatives as inducible no-synthase inhibitors” (Altana Pharma AG, priority 2003, dated 2010).

Columns and labels:
[1] = biological target: human inducible NO-synthase (Homo sapiens, UniProt P35228); assay: Measurement of inducible NO-synthase activity ([3H]arginine conversion, crude cytosolic fraction); type: biochemical; conditions: 0.1 μM arginine, 45 to 60 min at 37° C., pH 7.2; read-out: Inhibition of iNOS activity [measured as −logIC50 (mol/l)] (converted)
Description: Measurement of Inducible NO-Synthase Activity
The assay is performed in 96-well microtiter F-plates (Greiner, Frickenhausen, FRG) in a total volume of 100 μl in the presence of 100 nM calmodulin, 226 μM CaCl2, 477 μM MgCl2, 5 μM flavin-adenine-dinucleotide (FAD), 5 μM flavin mononucleotide (FMN), 0.1 mM NADPH, 7 mM glutathione, 10 μM BH4 and 100 mM HEPES pH 7.2. Arginine concentrations are 0.1 μM for enzyme inhibition experiments. 150000 dpm of [^3H]arginine are added to the assay mixture. Enzyme reaction is started by the addition of 4 μg of a crude cytosolic fraction containing human inducible NO-synthase and the reaction mixture is incubated for 45 to 60 min at 37° C. Enzyme reaction is stopped by adding 10 μl of 2M MES-buffer pH 5.0. 50 μl of the incubation mixture are transferred into a MADP N65 filtration microtiter plate (Millipore, Eschbom, FRG) containing already 50 μl of AG-50W-X8 cation exchange resin (Biorad, München, FRG). The resin in the Na loaded form is pre-equilibrated in water and 70 μl (corresponding to 50 μl dry beads) are pipetted under heavy stirring with a 8 channel pipette into the filtration plate. After pipetting 50 μl of the enzyme reaction mixture onto the filtration plates, the plates are placed on a filtration manifold (Porvair, Shepperton, UK) and the flow through is collected in Pico scintillation plates (Packard, Meriden, Conn.). The resin in the filtration plates is washed with 75 μl of water (1×50 μl and 1×25 μl) which is also collected in the same plate as the sample. The total flow through of 125 μl is mixed with 175 μl of Microscint-40 scintillation cocktail (Packard) and the scintillation plate is sealed with TopSeal P-foil (Packard). Scintillation plates are counted in a scintillation counter.
For the measurement of inducible NO-synthase-inhibiting potencies of compounds increasing concentrations of inhibitors were included into the incubation mixture. IC50-values were calculated from the percent inhibition at given concentrations by nonlinear least square fitting.
The inhibitory values determined for the compounds according to the invention follow from the following table A, in which the compound numbers correspond to the example numbers.

Compound | IC50 [1] [µM] | melting point [°C]
COc1ccnc(CCc2nc3cc(-c4ccc(S(=O)(=O)N5CCN(Cc6ccccc6)CC5)cc4)cnc3[nH]2)c1 [Compound 2, 2-[2-(4-Methoxypyridin-2-yl)-ethyl]-6-[4-(4-benzylpiperazin-1-yl-sulfonyl)-phenyl]-3H-imidazo-[4,5-b]pyridine] | 0.0355 | 160 to 162
COc1ccnc(CCc2nc3cc(-c4ccc(S(=O)(=O)N5CCC6(CC5)OCCO6)cc4)cnc3[nH]2)c1 [Compound 14, 6-[4-(1,4-dioxa-8-azaspiro[4.5]decan-8-yl-sulfonyl)-phenyl]-2-[2-(4-methoxy-pyridin-2-yl)ethyl]-3H-imidazo[4,5-b]pyridine] | 0.0263 | 121 to 122
COc1ccnc(CCc2nc3cc(-c4ccc(S(=O)(=O)N5CCCN(C)CC5)cc4)cnc3[nH]2)c1 [Compound 11, 2-[2-(4-Methoxypyridin-2-yl)ethyl]-6-[4-(4-methyl-[1,4]diazepan-1-yl-sulfonyl)-phenyl]-3H-imidazo-[4,5-b]pyridine] | 0.0129 | 160 to 162
COc1ccnc(CCc2nc3cc(-c4ccc(S(=O)(=O)N5CCN(c6ccc(C)cc6C)CC5)cc4)cnc3[nH]2)c1 [Compound 6, 6-{4-[4-(2,4-Dimethylphenyl)-piperazin-1-yl-sulfonyl]-phenyl}-2-[2-(4-methoxy-pyridin-2-yl)ethyl]-3H-imidazo[4,5-b]pyridine] | 0.126 | 208 to 209

The remaining lines, values ahead:

IC50 [1] [µM] | melting point [°C] | Compound
0.0347 | 215 to 216 | COc1ccnc(CCc2nc3cc(-c4ccc(S(=O)(=O)Nc5ccccc5OC)cc4)cnc3[nH]2)c1 [Compound 26, 4-{2-[2-(4-Methoxypyridin-2-yl)ethyl]-3H-imidazo[4,5-b]pyridin-6-yl}-N-(2-methoxyphenyl)-benzenesulfonamide]
0.0437 | 219 to 220 | COc1ccnc(CCc2nc3cc(-c4ccc(S(=O)(=O)Nc5ccc(C)cc5)cc4)cnc3[nH]2)c1 [Compound 25, 4-{2-[2-(4-Methoxypyridin-2-yl)ethyl]-3H-imidazo[4,5-b]pyridin-6-yl}-N-p-tolyl-benzenesulfonamide]
